Source: patent US20240254138A1, “TRICYCLIC PYRIMIDINES AS CYCLIN-DEPENDENT KINASE 7 (CDK7) INHIBITORS” (JANSSEN PHARMACEUTICA NV, priority 2021, published 2024)
Like-named read-outs stand apart in the source and are kept apart here.

Tests used:
[1] = molecular target: CDK7/cyclinH/MAT1 trimeric complex (Homo sapiens, UniProt P50613); test: In vitro CDK7 assay, potency of irreversible covalent inhibitors (kinact/KI), coupled PK/LDH ADP readout at 340 nm; conditions: for Ki: CDK7 (20 nM enz.) (KI, μM), 20 nM enzyme; for kinact: read-out: CDK7 (20 nM enz.) (kinact, s^−1), 20 nM enzyme
Chain of CDK7/cyclinH/MAT1 trimeric complex (P50613 whole entry): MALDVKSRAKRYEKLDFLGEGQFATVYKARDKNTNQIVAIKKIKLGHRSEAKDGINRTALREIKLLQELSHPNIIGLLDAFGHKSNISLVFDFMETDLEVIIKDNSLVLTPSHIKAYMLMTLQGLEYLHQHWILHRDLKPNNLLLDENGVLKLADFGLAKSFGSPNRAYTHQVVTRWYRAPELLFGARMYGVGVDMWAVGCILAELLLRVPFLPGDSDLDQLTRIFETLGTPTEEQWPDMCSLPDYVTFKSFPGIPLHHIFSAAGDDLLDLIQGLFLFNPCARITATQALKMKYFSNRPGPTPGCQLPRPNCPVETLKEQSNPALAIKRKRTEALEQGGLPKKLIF
Chain of CDK7/cyclinH/MAT1 trimeric complex (P51946 whole entry partner): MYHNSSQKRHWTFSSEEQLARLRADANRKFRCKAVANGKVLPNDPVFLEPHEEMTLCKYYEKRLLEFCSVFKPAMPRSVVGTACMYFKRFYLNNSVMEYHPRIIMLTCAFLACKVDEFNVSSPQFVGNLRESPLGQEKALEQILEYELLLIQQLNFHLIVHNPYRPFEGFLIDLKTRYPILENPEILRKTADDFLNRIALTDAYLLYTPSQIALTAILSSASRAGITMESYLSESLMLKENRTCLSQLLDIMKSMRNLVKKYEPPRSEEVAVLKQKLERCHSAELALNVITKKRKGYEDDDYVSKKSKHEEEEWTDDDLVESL
Chain of CDK7/cyclinH/MAT1 trimeric complex (P51948 whole entry partner): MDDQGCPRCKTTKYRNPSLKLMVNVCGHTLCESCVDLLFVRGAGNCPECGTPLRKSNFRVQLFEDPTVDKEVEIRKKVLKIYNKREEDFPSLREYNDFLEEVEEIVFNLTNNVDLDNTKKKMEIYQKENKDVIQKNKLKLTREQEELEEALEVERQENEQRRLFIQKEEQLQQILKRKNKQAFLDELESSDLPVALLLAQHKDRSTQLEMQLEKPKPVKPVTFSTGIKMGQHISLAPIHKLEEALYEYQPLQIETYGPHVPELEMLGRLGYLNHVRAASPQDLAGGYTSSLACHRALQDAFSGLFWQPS

[2] = test system: RNA Polymerase II Serine 5 phosphorylation in A549 cells overexpressing CDK7-mutant (C312S); test: Imaging-based cellular RNA PolII Ser5 phosphorylation assay in A549 cells overexpressing CDK7-mutant (C312S); type: cell-based, human; conditions: Homo sapiens, A549, A549 cells overexpressing CDK7-mutant (C312S); RNA PolII Ser5 phosphorylation; averaged over all measurements; read-out: CDK7_A549 mutant hCDK7(pIC50) (converted)
How it was run: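 Readout was automated imaging of anti-phospho-Ser5 Rpb1 CTD immunofluorescence, with IC50 fitted to % control versus concentration. Cells were A549 stably overexpressing non-covalently targetable CDK7 C312S alongside wild-type, exposed to compound 3 h at 37 °C. DMSO and 10 μM reference compound served as controls.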

[3] = test system: RNA Polymerase II Serine 5 phosphorylation (Rpb1 CTD, downstream substrate of CDK7) in A549 cells; test: Imaging-based cellular RNA PolII Ser5 phosphorylation assay in A549 cells; type: cell-based, human; conditions: Homo sapiens, A549, A549 cells, wild-type CDK7; RNA PolII Ser5 phosphorylation; averaged over all measurements; read-out: CDK7_A549 Wild-type CDK7 (pIC50) (converted)
How it was run: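 IC50 derived by fitting % control (DMSO high, 10 μM reference low) against concentration, with Hill slope. Readout: high-content imaging of phospho-Ser5 Rpb1 CTD antibody staining in fixed, permeabilized A549 cells exposed to compound 3 h after 20 h culture in 1% FBS DMEM.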

[4] = read-out: CDK7 (20 nM enz.) (kinact/KI, M^−1*s^−1), 20 nM enzyme
[5] = read-out: CDK7 (20 nM enz.) (kobs/[I], M^−1*s^−1), 20 nM enzyme

Compound `C=CC(=O)N1CC(N2CCC(c3cc(Cl)c4c(c3)Nc3nccc(N5CCOCC5)c3CO4)CC2)C1` [Compound 29] has a kinact/KI [1, 4] of 1030 M⁻¹ s⁻¹, an IC50 [2] of ~7760 nM and an IC50 [3] of 38.9 nM.
`Cc1nc(C2CN(C3CCN(C(=O)/C=C/CN(C)C)CC3)C2)cc2c1OCc1c(-c3cnn(C)c3)ccnc1N2` [Compound 532] was tested, and the Ki [1] was 0.0823 µM, the kinact [1] was 1.52e-05 s⁻¹ and the kinact/KI [1, 4] was 184 M⁻¹ s⁻¹. The IC50 [2] was 10200 nM and the IC50 [3] was 427 nM.
For `CC#CC(=O)N1CC[C@@H](N2CCC(c3cc4c(c(C)n3)OCc3c(N5CCOCC5)ccnc3N4)CC2)C1` (single isomer, unassigned) [Compound 310], the Ki [1] was 0.115 µM, the kinact [1] was 6.29e-05 s⁻¹ and the kinact/KI [1, 4] was 547 M⁻¹ s⁻¹. For the same compound, the IC50 [2] was > 10000 nM and the IC50 [3] was 75.9 nM.
`C=CC(=O)N1CC(N2CCC(c3cc(C)c4c(c3)Nc3nccc(C5CCS(=O)(=O)CC5)c3CO4)CC2)C1` [Compound 133] was tested, and the Ki [1] was 0.0971 µM, the kinact [1] was 6.94e-05 s⁻¹ and the kinact/KI [1, 4] was 715 M⁻¹ s⁻¹. For the same compound, the IC50 [2] was > 10000 nM and the IC50 [3] was 166 nM.
`C=CC(=O)N1CC[C@@H](N2CC(c3cc4c(c(C5CC5)n3)O[C@H](C)c3c(N5CCOCC5)ccnc3N4)C2)C1` (single isomer, unassigned) [Compound 469] showed a Ki [1] of 1.32 µM, a kinact [1] of 4.03e-05 s⁻¹ and a kinact/KI [1, 4] of 30.5 M⁻¹ s⁻¹. The IC50 [2] was > 10000 nM and the IC50 [3] was 2140 nM.
In the case of `C=CC(=O)N1CC(N2CC[C@H](c3ccc4c(c3)Nc3nccc(N5CCOCC5)c3CO4)C[C@H]2C)C1` (single isomer, unassigned) [Compound 76], the kinact/KI [1, 5] is reported as 1650 M⁻¹ s⁻¹, the IC50 [2] is reported as > 10000 nM and the IC50 [3] is reported as 79.4 nM.
For `CC#CC(=O)N1CCC(N2CC(c3cc(C)c4c(c3)Nc3nccc(C5CCOCC5)c3CO4)C2)C1` (centres unmarked) [Compound 274], the Ki [1] was 0.0714 µM, the kinact [1] was 3.45e-05 s⁻¹ and the kinact/KI [1, 4] was 483 M⁻¹ s⁻¹. For the same compound, the IC50 [2] was > 10000 nM and the IC50 [3] was 174 nM.
Compound `C=CC(=O)N1CCC(N2CC(c3cc4c(c(C)n3)O[C@H](C)c3c(C5CCOCC5)ccnc3N4)C2)CC1` (single isomer, unassigned) [Compound 465] has a Ki [1] of 0.0329 µM, a kinact [1] of 2.79e-05 s⁻¹ and a kinact/KI [1, 4] of 848 M⁻¹ s⁻¹. The IC50 [2] was 7080 nM and the IC50 [3] was 72.4 nM.
With `C=CC(=O)N1CC(N2CCC(O)(c3cc(C)c4c(c3)Nc3nccc(N5CCOCC5)c3CO4)CC2)C1` [Compound 140] the Ki [1] was 0.0741 µM, the kinact [1] was 6.51e-05 s⁻¹ and the kinact/KI [1, 4] was 878 M⁻¹ s⁻¹. The IC50 [2] was > 10000 nM and the IC50 [3] was 117 nM.
With `C=CC(=O)N1CC(N2CC[C@@H](c3ccc4c(c3)Nc3nccc(N5CCOCC5)c3CO4)C(C)(C)C2)C1` (single isomer, unassigned) [Compound 69] the kinact/KI [1, 5] was 529 M⁻¹ s⁻¹, the IC50 [2] was > 10000 nM and the IC50 [3] was 234 nM.
In the case of `C=CC(=O)N1CC(N2CCC(c3cc4c(cc3C#N)OCc3c(N5CCOCC5)ccnc3N4)CC2)C1` [Compound 174], the Ki [1] is reported as 0.143 µM, the kinact [1] is reported as 5.74e-05 s⁻¹ and the kinact/KI [1, 4] is reported as 401 M⁻¹ s⁻¹. The IC50 [2] was > 10000 nM and the IC50 [3] was 324 nM.
Compound `C=CC(=O)N1CC(N2CCC(c3cc(C)c4c(c3)Nc3nccc(N5CCS(=O)(=O)CC5)c3CO4)CC2)C1` [Compound 71] has a Ki [1] of 0.0575 µM, a kinact [1] of 5.6e-05 s⁻¹ and a kinact/KI [1, 4] of 973 M⁻¹ s⁻¹. For the same compound, the IC50 [2] was > 10000 nM and the IC50 [3] was 245 nM.
In the case of `C=CC(=O)N1CC(N2CC(c3cc4c(c(C#N)n3)OCc3c(N5CCOCC5)ccnc3N4)C2)C1` [Compound 290], the Ki [1] is reported as 0.0265 µM, the kinact [1] is reported as 3.61e-05 s⁻¹ and the kinact/KI [1, 4] is reported as 1360 M⁻¹ s⁻¹. The IC50 [2] was > 10000 nM and the IC50 [3] was 295 nM.
Compound `CC#CC(=O)N1CC(N2CC[C@@H](c3cc4c(c(C)n3)OCc3c(N5CCOCC5)ccnc3N4)C2)C1` (single isomer, unassigned) [Compound 386] has a Ki [1] of 0.399 µM, a kinact [1] of 1.64e-05 s⁻¹ and a kinact/KI [1, 4] of 41.1 M⁻¹ s⁻¹. The IC50 [2] was > 10000 nM and the IC50 [3] was 1620 nM.
For `C=CC(=O)N1CC(N2CCC(c3cc4c(c(-c5ncc[nH]5)c3)OCc3c(N5CCOCC5)ccnc3N4)CC2)C1` [Compound 275], the kinact/KI [1, 5] was 921 M⁻¹ s⁻¹, the IC50 [2] was > 10000 nM and the IC50 [3] was 87.1 nM.
For `C#CCCN(C)C/C=C/C(=O)N1CC(N2CCC(c3ccc4c(c3)Nc3nccc(N5CCOCC5)c3C(C)O4)CC2)C1` (centres unmarked) [Compound 146], the Ki [1] was 0.0285 µM, the kinact [1] was 5.53e-05 s⁻¹ and the kinact/KI [1, 4] was 1940 M⁻¹ s⁻¹. The IC50 [2] was > 10000 nM and the IC50 [3] was 214 nM.
For `C=CC(=O)N1CCC2(CC1)CC(Cc1ccc3c(c1)Nc1nccc(C4CCOCC4)c1CO3)C2` [Compound 64], the Ki [1] was 0.445 µM, the kinact [1] was 1.43e-05 s⁻¹ and the kinact/KI [1, 4] was 32 M⁻¹ s⁻¹. For the same compound, the IC50 [2] was > 10000 nM and the IC50 [3] was > 10000 nM.
